Counter-ions that a name gives are not always drawn.
Tests used:
Format in all cases: cell-based
[1] = tested on: Acinetobacter baumannii XNWB 0007; test: MIC assay of test compounds combined with ceftazidime (8 μg/mL); details: ceftazidime 8 μg/mL fixed
Outline: (§1)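 We recorded each combination MIC according to CLSI after culturing plates at 35±2 °C for 16-20 h. The inoculum consisted of colonies suspended in 0.9% NaCl (OD600 0.1-0.15) and diluted 300-fold with 1.1×CAMHB, mixed with compound dilutions and the partner β-lactam.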

[2] = tested on: Klebsiella pneumoniae XNWB 0001; test: as above; details: ceftazidime 8 μg/mL fixed
Outline: as §1

[3] = tested on: Klebsiella pneumoniae XNWB 0002; test: as above; details: ceftazidime 8 μg/mL fixed
Outline: as §1

[4] = tested on: Klebsiella pneumoniae XNWB 0003; test: as above; details: ceftazidime 8 μg/mL fixed
Outline: as §1

[5] = tested on: Klebsiella pneumoniae XNWB 0004; test: as above; details: ceftazidime 8 μg/mL fixed
Outline: as §1

[6] = tested on: Klebsiella pneumoniae XNWB 0005; test: as above; details: ceftazidime 8 μg/mL fixed
Outline: as §1

[7] = tested on: Klebsiella pneumoniae XNWB 0006; test: as above; details: ceftazidime 8 μg/mL fixed
Outline: as §1

[8] = tested on: Pseudomonas aeruginosa XNWB 0008; test: as above; details: ceftazidime 8 μg/mL fixed
Outline: as §1

[9] = tested on: Acinetobacter baumannii XNWB 0007; test: MIC assay of test compounds combined with imipenem (4 μg/mL); details: imipenem 4 μg/mL fixed
Outline: as §1

[10] = tested on: Klebsiella pneumoniae XNWB 0001; test: as above; details: imipenem 4 μg/mL fixed
Outline: as §1

[11] = tested on: Klebsiella pneumoniae XNWB 0002; test: as above; details: imipenem 4 μg/mL fixed
Outline: as §1

[12] = tested on: Klebsiella pneumoniae XNWB 0003; test: as above; details: imipenem 4 μg/mL fixed
Outline: as §1

[13] = tested on: Klebsiella pneumoniae XNWB 0004; test: as above; details: imipenem 4 μg/mL fixed
Outline: as §1

[14] = tested on: Klebsiella pneumoniae XNWB 0005; test: as above; details: imipenem 4 μg/mL fixed
Outline: as §1

[15] = tested on: Klebsiella pneumoniae XNWB 0006; test: as above; details: imipenem 4 μg/mL fixed
Outline: as §1

[16] = tested on: Pseudomonas aeruginosa XNWB 0008; test: as above; details: imipenem 4 μg/mL fixed
Outline: as §1

O=C1N2C[C@H](N1OS(=O)(=O)O)C1(CC1)C[C@H]2c1cc(COC2CNC2)on1 [Example 50, (1R,4S)-4-(5-((azetidin-3-yloxy)methyl)isoxazol-3-yl)-6-oxo-5,7-diazaspiro[bicycle [3.2.1]octane-2,1′-cyclopropan]-7-yl sulfate]
A (A: <8 μg/mL): The minimum concentration of test compounds combined with ceftazidime (8 μg/mL) for bacteriostasis [2] | The minimum concentration of test compounds combined with ceftazidime (8 μg/mL) for bacteriostasis [3] | The minimum concentration of test compounds combined with ceftazidime (8 μg/mL) for bacteriostasis [4] | The minimum concentration of test compounds combined with ceftazidime (8 μg/mL) for bacteriostasis [6] | The minimum concentration of test compounds combined with ceftazidime (8 μg/mL) for bacteriostasis [7] | The minimum concentration of test compounds combined with imipenem (4 μg/mL) for bacteriostasis [10] | The minimum concentration of test compounds combined with imipenem (4 μg/mL) for bacteriostasis [11] | The minimum concentration of test compounds combined with imipenem (4 μg/mL) for bacteriostasis [12] | The minimum concentration of test compounds combined with imipenem (4 μg/mL) for bacteriostasis [13] | The minimum concentration of test compounds combined with imipenem (4 μg/mL) for bacteriostasis [14] | The minimum concentration of test compounds combined with imipenem (4 μg/mL) for bacteriostasis [15] | The minimum concentration of test compounds combined with imipenem (4 μg/mL) for bacteriostasis [16]
C (C: 16-128 μg/mL): The minimum concentration of test compounds combined with ceftazidime (8 μg/mL) for bacteriostasis [1] | The minimum concentration of test compounds combined with imipenem (4 μg/mL) for bacteriostasis [9]
B (B: 8-16 μg/mL): The minimum concentration of test compounds combined with ceftazidime (8 μg/mL) for bacteriostasis [5] | The minimum concentration of test compounds combined with ceftazidime (8 μg/mL) for bacteriostasis [8]

CNCCNC[C@H](O)c1nnc([C@@H]2CC3(CC3)[C@@H]3CN2C(=O)N3OS(=O)(=O)O)o1 [Example 30, (1R,4S)-4-(5-((S)-1-hydroxy-2-((2-(methylamino)ethyl)amino)ethyl)-1,3,4-oxadiazol-2-yl)-6-oxo-5,7-diazaspiro[bicyclo[3.2.1]octane-2,1′-cyclopropan]-7-yl sulfate]
B (B: 8-16 μg/mL): The minimum concentration of test compounds combined with ceftazidime (8 μg/mL) for bacteriostasis [2] | The minimum concentration of test compounds combined with ceftazidime (8 μg/mL) for bacteriostasis [5] | The minimum concentration of test compounds combined with ceftazidime (8 μg/mL) for bacteriostasis [6] | The minimum concentration of test compounds combined with imipenem (4 μg/mL) for bacteriostasis [9]
C (C: 16-128 μg/mL): The minimum concentration of test compounds combined with ceftazidime (8 μg/mL) for bacteriostasis [1] | The minimum concentration of test compounds combined with ceftazidime (8 μg/mL) for bacteriostasis [8] | The minimum concentration of test compounds combined with imipenem (4 μg/mL) for bacteriostasis [16]
A (A: <8 μg/mL): The minimum concentration of test compounds combined with ceftazidime (8 μg/mL) for bacteriostasis [3] | The minimum concentration of test compounds combined with ceftazidime (8 μg/mL) for bacteriostasis [4] | The minimum concentration of test compounds combined with ceftazidime (8 μg/mL) for bacteriostasis [7] | The minimum concentration of test compounds combined with imipenem (4 μg/mL) for bacteriostasis [10] | The minimum concentration of test compounds combined with imipenem (4 μg/mL) for bacteriostasis [11] | The minimum concentration of test compounds combined with imipenem (4 μg/mL) for bacteriostasis [12] | The minimum concentration of test compounds combined with imipenem (4 μg/mL) for bacteriostasis [13] | The minimum concentration of test compounds combined with imipenem (4 μg/mL) for bacteriostasis [14] | The minimum concentration of test compounds combined with imipenem (4 μg/mL) for bacteriostasis [15]

NCCCc1nnc([C@@H]2CC3(CC3)[C@@H]3CN2C(=O)N3OS(=O)(=O)O)o1 [Example 6, sodium (1R,4S)-4-(5-(3-aminopropyl)-1,3,4-oxadiazol-2-yl)-6-oxo-5,7-diazaspiro [bicycle[3.2.1]octane-2,1′-cyclopropan]-7-yl sulfate]
B (B: 8-16 μg/mL): The minimum concentration of test compounds combined with ceftazidime (8 μg/mL) for bacteriostasis [4] | The minimum concentration of test compounds combined with ceftazidime (8 μg/mL) for bacteriostasis [5] | The minimum concentration of test compounds combined with ceftazidime (8 μg/mL) for bacteriostasis [6] | The minimum concentration of test compounds combined with imipenem (4 μg/mL) for bacteriostasis [9] | The minimum concentration of test compounds combined with imipenem (4 μg/mL) for bacteriostasis [16]
A (A: <8 μg/mL): The minimum concentration of test compounds combined with ceftazidime (8 μg/mL) for bacteriostasis [2] | The minimum concentration of test compounds combined with ceftazidime (8 μg/mL) for bacteriostasis [3] | The minimum concentration of test compounds combined with ceftazidime (8 μg/mL) for bacteriostasis [7] | The minimum concentration of test compounds combined with imipenem (4 μg/mL) for bacteriostasis [10] | The minimum concentration of test compounds combined with imipenem (4 μg/mL) for bacteriostasis [11] | The minimum concentration of test compounds combined with imipenem (4 μg/mL) for bacteriostasis [12] | The minimum concentration of test compounds combined with imipenem (4 μg/mL) for bacteriostasis [13] | The minimum concentration of test compounds combined with imipenem (4 μg/mL) for bacteriostasis [14] | The minimum concentration of test compounds combined with imipenem (4 μg/mL) for bacteriostasis [15]
C (C: 16-128 μg/mL): The minimum concentration of test compounds combined with ceftazidime (8 μg/mL) for bacteriostasis [1] | The minimum concentration of test compounds combined with ceftazidime (8 μg/mL) for bacteriostasis [8]

N[C@H]1C[C@@H](c2nnc([C@@H]3CC4(CC4)[C@@H]4CN3C(=O)N4OS(=O)(=O)O)o2)C1 [Example 15, (1R,4S)-4-(5-((1S,3R)-3-aminocyclobutyl)-1,3,4-oxadiazol-2-yl)-6-oxo-5,7-diazaspiro [bicyclo[3.2.1]octane-2,1′-cyclopropan]-7-yl sulfate]
C (C: 16-128 μg/mL): The minimum concentration of test compounds combined with ceftazidime (8 μg/mL) for bacteriostasis [1] | The minimum concentration of test compounds combined with ceftazidime (8 μg/mL) for bacteriostasis [8] | The minimum concentration of test compounds combined with imipenem (4 μg/mL) for bacteriostasis [9]
B (B: 8-16 μg/mL): The minimum concentration of test compounds combined with ceftazidime (8 μg/mL) for bacteriostasis [5] | The minimum concentration of test compounds combined with imipenem (4 μg/mL) for bacteriostasis [16]
A (A: <8 μg/mL): The minimum concentration of test compounds combined with ceftazidime (8 μg/mL) for bacteriostasis [2] | The minimum concentration of test compounds combined with ceftazidime (8 μg/mL) for bacteriostasis [3] | The minimum concentration of test compounds combined with ceftazidime (8 μg/mL) for bacteriostasis [4] | The minimum concentration of test compounds combined with ceftazidime (8 μg/mL) for bacteriostasis [6] | The minimum concentration of test compounds combined with ceftazidime (8 μg/mL) for bacteriostasis [7] | The minimum concentration of test compounds combined with imipenem (4 μg/mL) for bacteriostasis [10] | The minimum concentration of test compounds combined with imipenem (4 μg/mL) for bacteriostasis [11] | The minimum concentration of test compounds combined with imipenem (4 μg/mL) for bacteriostasis [12] | The minimum concentration of test compounds combined with imipenem (4 μg/mL) for bacteriostasis [13] | The minimum concentration of test compounds combined with imipenem (4 μg/mL) for bacteriostasis [14] | The minimum concentration of test compounds combined with imipenem (4 μg/mL) for bacteriostasis [15]

CNCCc1nnc([C@@H]2CC3(CC3)[C@@H]3CN2C(=O)N3OS(=O)(=O)O)o1 [Example 24, (1R,4S)-4-(5-(2-(methylamino)ethyl)-1,3,4-oxadiazol-2-yl)-6-oxo-5,7-diazaspiro[bicyclo[3.2.1]octane-2,1′-cyclopropan]-7-yl sulfate]
B (B: 8-16 μg/mL): The minimum concentration of test compounds combined with imipenem (4 μg/mL) for bacteriostasis [16]
C (C: 16-128 μg/mL): The minimum concentration of test compounds combined with ceftazidime (8 μg/mL) for bacteriostasis [1] | The minimum concentration of test compounds combined with ceftazidime (8 μg/mL) for bacteriostasis [8]
A (A: <8 μg/mL): The minimum concentration of test compounds combined with ceftazidime (8 μg/mL) for bacteriostasis [2] | The minimum concentration of test compounds combined with ceftazidime (8 μg/mL) for bacteriostasis [3] | The minimum concentration of test compounds combined with ceftazidime (8 μg/mL) for bacteriostasis [4] | The minimum concentration of test compounds combined with ceftazidime (8 μg/mL) for bacteriostasis [5] | The minimum concentration of test compounds combined with ceftazidime (8 μg/mL) for bacteriostasis [6] | The minimum concentration of test compounds combined with ceftazidime (8 μg/mL) for bacteriostasis [7] | The minimum concentration of test compounds combined with imipenem (4 μg/mL) for bacteriostasis [9] | The minimum concentration of test compounds combined with imipenem (4 μg/mL) for bacteriostasis [10] | The minimum concentration of test compounds combined with imipenem (4 μg/mL) for bacteriostasis [11] | The minimum concentration of test compounds combined with imipenem (4 μg/mL) for bacteriostasis [12] | The minimum concentration of test compounds combined with imipenem (4 μg/mL) for bacteriostasis [13] | The minimum concentration of test compounds combined with imipenem (4 μg/mL) for bacteriostasis [14] | The minimum concentration of test compounds combined with imipenem (4 μg/mL) for bacteriostasis [15]
